Tests used:
Nicastrin = target: T1, Nicastrin (Homo sapiens, UniProt Q92542); test: thermal proteome profiling (iTRAQ LC-MS/MS), isothermal dose-response stabilization at […] °C, SH-SY5Y cells; type: biochemical
T1 construct: gene NCSTN

Casein kinase 1 epsilon = target: T2, Casein kinase 1 epsilon (Homo sapiens, UniProt P49674); test: as above; type: biochemical
T2 construct: gene CSNK1E
T2 sequence (P49674 whole entry): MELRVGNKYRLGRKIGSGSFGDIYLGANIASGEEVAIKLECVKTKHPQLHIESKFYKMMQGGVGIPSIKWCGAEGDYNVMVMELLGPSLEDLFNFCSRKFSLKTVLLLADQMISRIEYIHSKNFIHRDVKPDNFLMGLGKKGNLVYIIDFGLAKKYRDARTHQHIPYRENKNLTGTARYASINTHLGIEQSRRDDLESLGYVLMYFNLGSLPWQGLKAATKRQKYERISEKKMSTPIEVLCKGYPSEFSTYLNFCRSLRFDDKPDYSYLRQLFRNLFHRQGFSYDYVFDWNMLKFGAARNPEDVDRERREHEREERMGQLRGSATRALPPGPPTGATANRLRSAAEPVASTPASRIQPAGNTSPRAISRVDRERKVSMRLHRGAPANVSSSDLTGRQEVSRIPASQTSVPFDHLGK

T1 sequence (Q92542 34-709): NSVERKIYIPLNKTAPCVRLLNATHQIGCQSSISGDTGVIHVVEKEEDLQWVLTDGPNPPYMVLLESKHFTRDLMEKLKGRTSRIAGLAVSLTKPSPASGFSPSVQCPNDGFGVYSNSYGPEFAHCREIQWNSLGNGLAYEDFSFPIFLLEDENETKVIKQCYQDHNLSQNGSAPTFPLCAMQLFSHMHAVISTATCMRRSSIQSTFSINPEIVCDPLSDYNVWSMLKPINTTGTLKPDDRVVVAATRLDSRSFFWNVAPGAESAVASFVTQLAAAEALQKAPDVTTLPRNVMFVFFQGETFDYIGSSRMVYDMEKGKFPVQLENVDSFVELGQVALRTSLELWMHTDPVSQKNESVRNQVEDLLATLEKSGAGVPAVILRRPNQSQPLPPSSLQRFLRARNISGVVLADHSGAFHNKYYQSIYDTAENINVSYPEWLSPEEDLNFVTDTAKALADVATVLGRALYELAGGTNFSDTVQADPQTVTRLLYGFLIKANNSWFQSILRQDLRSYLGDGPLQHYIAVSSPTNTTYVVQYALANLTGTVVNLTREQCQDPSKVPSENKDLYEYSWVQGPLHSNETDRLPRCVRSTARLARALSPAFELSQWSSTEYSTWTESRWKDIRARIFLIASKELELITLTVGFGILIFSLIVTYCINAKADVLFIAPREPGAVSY

C[C@H](CCC(=O)O)[C@H]1CC[C@H]2[C@@H]3CC[C@@H]4C[C@H](O)CC[C@]4(C)[C@H]3C[C@H](O)[C@]12C [deoxycholic acid]
EC50 (Nicastrin): 6.03 µM
EC50 (Casein kinase 1 epsilon): 7.22 µM

From paper PMC11727579, “Thermal proteome profiling unveils protein targets of deoxycholic acid in living neuronal cells” (Advanced Biotechnology, 2023)
